Experiments:
Format in all cases: in vivo, mouse
Details in all cases: PVS 5 mg/kg intramyocardial at beginning of ischemia; ischemia 1 h, reperfusion 4 h
[1] = system: I/R mice; assay: Myocardial infarct size (Evans blue/TTC staining) in I/R mice
Protocol: (§1) We anesthetized the mouse with 5% isoflurane mixed with room air until loss of sensation of pain and then maintained the mouse in anesthesia status with 2% isoflurane mixed with room air through the whole procedure. The mouse's body temperature was maintained at 37° C. by a heating pad. After the mouse was intubated, we provided artificial ventilation to the mouse with a small animal ventilator. Then the chest cavity was opened at the second intercostal space and homemade chest retractors were utilized to widen the incision. We pulled the pericardium apart carefully and exposed the left anterior descending artery (LAD). A 7-0 silk was put underneath the LAD at the position of the tip of the left auricle, a 6 mm length of PE-10 tube was put on the surface of the LAD, and then a double knot was made to occlude the blood flow of LAD. The success of ligation was confirmed by paling the anterior wall of the LV. For the reperfusion group, the LAD knot would be untied for the purpose of reperfusion after 1 hour of ischemia. For the sham operation group, all procedures were the same except for the knot that occluded the LAD flow. After the successful procedure, we left the silk in situ, closed the chest cavity and weaned the animal from the ventilator.
At the end of experiment, the animal was sacrificed. We opened the chest cavity and exposed the heart and aorta. The heart was perfused with 0.9% saline from the apex until the coronary vessels and myocardium turning into pale color. After saline perfusion, the LAD knot was tied again. 1 mL of 1% Evans blue dye was delivered into the heart through the aortic root by retrograde injection. The dye uniformly perfused the whole heart except in the area of the heart previously perfused by the occluded coronary artery (area at risk, AAR). Then the heart was quickly removed, washed in ice-cold 0.9% saline followed by frozen at −20° C. for 20 minutes, then cut into slices of 1 mm with heart matrix. […] The areas stained with Evans blue negative but TTC-positive (AAR), and TTC-negative area (infarct area) were all measured digitally by ImageJ software. […]

[2] = system: I/R mice; assay: Serum troponin I measurement in I/R mice
Protocol: as §1
Before the mouse was sacrificed, blood was drawn from the facial vein. The blood was put in the room temperature for 30 minutes and then centrifuged at 4° C. for 15 minutes at 5000 rpm. After centrifuging, the serum is collected for troponin I measurement with troponin I ELISA kit (KT-469, Kamiya Biomedical Company) according to the manufacture's protocol.

[3] = system: myocardial protein tyrosine phosphorylation; assay: Immunoblotting of heart extracts of I/R mice (anti-pTyr, p-Paxillin, p-p130cas, p-ErbB-2)
Protocol: as §1
Hearts from mice received different treatment were gently homogenized in ice-cold RIPA buffer [250 mM Tris-HCl pH 7.4, 750 mM NaCl, detergent mix (5% NP-40, 2.5% Na-deoxycholate and 0.5% SDS), and 1× protease inhibitor cocktail (EDTA free)] containing phosphatase inhibitors (2 mM Na3VO4, 10 mM NaF, and 10 mM Na2P2O7). The homogenates were centrifuged at 16,100×g at 4° C. for 10 minutes to remove the debris. Protein concentrations were determined by Bradford protein assay. Equal amounts of protein extract from those mice were separated by SDS-PAGE on an 8% or 10% polyacrylamide gel and then transferred to PVDF membrane. Membranes were incubated with indicated primary antibody at 4° C. overnight followed by incubated with secondary antibodies for 1 hour at room temperature. The protein abundance was detected by the signal intensity of each specific band.

C=CS(=O)(=O)c1ccccc1 [PVS, phenyl vinyl sulfone]
Area of heart infarction [1]: reduced
Release of troponin I into the blood [2]: decreased
I/R-caused tyrosine dephosphorylation of myocardial proteins [3]: rebounded

Source: patent publication US20190298664A1, “METHOD AND KIT FOR MYOCARDIAL REPERFUSION, AND METHOD FOR ATTENUATING OR REDUCING MYOCARDIAL REPERFUSION INJURY” (Academia Sinica, priority 2018, published 2019)
